Measured values from the supplement of paper PMC12317010.
Structures can show the parent of a compound that is named as a salt.

Assay: collision cross section in nitrogen (drift tube, single-field); higher = larger gas-phase ion size
[1] = ion type: [M+H], ion source: APCI, ion mode: Positive
[2] = ion type: [M+H], ion source: ESI, ion mode: Positive
[3] = ion type: [M+Na], ion source: ESI, ion mode: Positive
[4] = ion type: [M-H], ion source: ESI, ion mode: Negative
[5] = ion type: [M+], ion source: APCI, ion mode: Positive
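Further: chemical standards at 10 µM analysed by drift tube IMS-QTOF MS in about 3.95 torr nitrogen, mean of duplicate injections differing ≤1%, mass error below 10 ppm.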

Row | collision cross section in nitrogen [1] [Å²] | collision cross section in nitrogen [2] [Å²] | collision cross section in nitrogen [3] [Å²] | collision cross section in nitrogen [4] [Å²] | SMILES | other results
1 | 214.3 | 213.7 | 213.7 | – | O=C1c2ccccc2C(=O)N1CCc1noc(-c2ccc(CN3CCCCCC3)s2)n1 | –
2 | 175.5 | 175.4 | 185.4 | – | Cc1cccc(N(C)C(=S)Oc2ccc3ccccc3c2)c1 [Tolnaftate] | –
3 | 121.7 | – | – | – | CCN1CCCC1=O [1-Ethyl-2-pyrrolidinone] | –
4 | 178.8 | 178.9 | 186.7 | 176.4 | CCc1ccc(CCOc2ccc(CC3SC(=O)NC3=O)cc2)nc1 (centres undefined) [Pioglitazone hydrochloride] | –
5 | 199.2 | 199.2 | 201.6 | 202.9 | O=C1CC2(CCCC2)CC(=O)N1CCCCN1CCN(c2ncccn2)CC1 [Buspirone] | collision cross section in nitrogen [5]: 196.8 Å²
6 | – | 213.4 | – | – | N[C@@H](Cc1cc(I)c(Oc2cc(I)c(O)c(I)c2)c(I)c1)C(=O)O [Levothyroxine] | –
7 | – | 288.9 | 296.2 | 281.7 | CC1(C)[C@@H](O[C@H]2O[C@H](C(=O)O)[C@@H](O)[C@H](O)[C@H]2O[C@@H]2O[C@H](C(=O)O)[C@@H](O)[C@H](O)[C@H]2O)CC[C@]2(C)[C@H]3C(=O)C=C4[C@@H]5C[C@@](C)(C(=O)O)CC[C@]5(C)CC[C@@]4(C)[C@]3(C)CC[C@@H]12 [Glycyrrhizin] | –
8 | – | – | 147.2 | – | COc1ccccc1OCC(O)CO (centres undefined) [Guaifenesin] | –
9 | – | – | – | 139.3 | CC(C)(C)c1n[nH]c(=O)n(N)c1=O [Diketometribuzin] | –
10 | – | – | 171.7 | 174.7 | CC1(C)O[C@@H]2[C@@H](CO[C@@]3(COS(N)(=O)=O)OC(C)(C)O[C@@H]23)O1 [Topiramate] | –
11 | 126.5 | – | – | – | Cc1cccc2nccnc12 [5-Methylquinoxaline] | –
12 | – | – | – | 140.7 | O=C(O)CCCCCCCC(=O)O [Nonanedioic acid] | –
13 | – | – | – | 184.4 | CC(=O)[C@@]1(O)CC[C@H]2[C@@H]3CCC4=CC(=O)CC[C@]4(C)[C@H]3CC[C@@]21C [17alpha-Hydroxyprogesterone] | –
14 | 187.9 | 187.4 | 195.1 | – | CCOC(=O)N1CCC(=C2c3ccc(Cl)cc3CCc3cccnc32)CC1 [Loratadine] | –
15 | 165.8 | 166 | 172.7 | – | CN(C)CCCN1c2ccccc2CCc2ccccc21 [Imipramine hydrochloride] | –
16 | – | – | – | – | CCCC[P+](CCCC)(CCCC)CCCC [Tetrabutylphosphonium chloride] | collision cross section in nitrogen (ion source: APCI, ion mode: Positive, ion type: [M]+ (permanent cation)): 172.4 Å²

Row | collision cross section in nitrogen [1] [Å²] | collision cross section in nitrogen [2] [Å²] | collision cross section in nitrogen [3] [Å²] | collision cross section in nitrogen [4] [Å²] | SMILES | other results
17 | – | – | 180.5 | 169 | COc1cc(S(=O)(=O)Nc2ccccc2)c(OC)cc1N [4-Amino-2,5-dimethoxy-N-phenylbenzenesulfonamide] | collision cross section in nitrogen [5]: 167.2 Å²
18 | 137.7 | 137.9 | – | – | OCCN(CCO)c1ccccc1 [N-Phenyl diethanolamine] | –
19 | 119.2 | 119.8 | – | – | OCc1cccnc1 [Nicotinyl alcohol] | –
20 | 249.1 | 249.1 | 251.8 | 250 | CCN(CC)C(=O)c1cc(S(=O)(=O)Cc2ccccc2)c(N2CCC(c3ccccc3)CC2)cc1N(CC)CCN(C)C [HMR1171 trifluoroacetate (1:1)] | –
21 | 182.5 | 183.2 | – | – | CC[C@]12CCCN3CCc4c(n(c5ccccc45)[C@@](O)(C(=O)OC)C1)[C@@H]32 [Vincamine] | –
22 | – | – | – | 136.9 | CC(C)CCCC(=O)O [5-Methylhexanoic acid] | –
23 | 125.7 | 126.6 | – | – | OCCC1CCCCN1 (centres undefined) [2-Piperidineethanol] | –
24 | – | – | 193.9 | – | CCC(=O)Oc1ccc(/C(CC)=C(\CC)c2ccc(OC(=O)CC)cc2)cc1 [Diethylstilbestrol dipropionate] | –
25 | 223.8 | 224.2 | 231.6 | – | CCCCc1oc2ccccc2c1C(=O)c1cc(I)c(OCCN(CC)CC)c(I)c1 [Amiodarone hydrochloride] | collision cross section in nitrogen [5]: 224 Å²
26 | 188.9 | – | – | – | CC(C)c1ccc2c(c1)CC[C@H]1[C@](C)(CN)CCC[C@]21C [Dehydroabietylamine acetate] | –
27 | 157.1 | 156.3 | – | 147.4 | Cc1[nH]c(=O)c(C#N)cc1-c1ccncc1 [Milrinone] | –
28 | 142.7 | 143.3 | – | 140.7 | Nc1cc(-c2ccncc2)c[nH]c1=O [Amrinone] | –
29 | – | 118.5 | – | – | Cn1sccc1=O [2-Methyl-3-isothiazolone hydrochloride] | –
30 | – | – | – | 145.3 | Cc1ccc2c(c1)C(=O)c1ccccc1C2=O [2-Methylanthraquinone] | –
31 | 189.4 | – | 179.5 | – | COCCCOc1ccnc(CS(=O)c2nc3ccccc3[nH]2)c1C (centres undefined) [Rabeprazole sodium] | collision cross section in nitrogen [5]: 187.8 Å²
32 | – | 171.9 | 184.5 | – | O=C(Nc1ccc2ccccc2c1)c1ccc(Cl)cc1Cl [2,4-Dichloro-N-(naphthalene-2-yl)benzamide] | –

Row | SMILES | collision cross section in nitrogen [1] [Å²] | collision cross section in nitrogen [2] [Å²] | collision cross section in nitrogen [3] [Å²] | collision cross section in nitrogen [4] [Å²] | other results
33 | CN(C)C(=O)Nc1ccc(Cl)cc1 [Monuron] | 142.7 | 143 | – | 142.4 | –
34 | [O-][Cl+]O [Sodium chlorite] | – | – | – | 105.2 | –
35 | CON(C)C(=O)Nc1ccc(Cl)c(Cl)c1 [Linuron] | – | – | – | 151.1 | –
36 | COP(=S)(NC(C)C)Oc1ccc(C)cc1[N+](=O)[O-] (centres undefined) [Amiprofos-methyl] | – | – | 172.4 | 164.8 | –
37 | CCOP(=S)(OCC)SCCS(=O)(=O)CC [Disulfoton sulfone] | – | – | 166 | – | –
38 | CC1=NNC(=O)N(/N=C/c2cccnc2)C1 [Pymetrozine] | 154.8 | 154.2 | 155.8 | – | –
39 | OC(c1ccc(F)cc1)(c1cncnc1)c1ccccc1Cl (centres undefined) [Nuarimol] | 171.6 | 171.2 | – | 170.7 | –
40 | N#CC(C#N)=NNc1cccc(Cl)c1 [Carbonyl cyanide chlorophenylhydrazone] | – | 142.8 | – | – | –
41 | CC12CC1(C)C(=O)N(c1cc(Cl)cc(Cl)c1)C2=O (centres undefined) [Procymidone] | – | – | – | 157.1 | –
42 | CN1COCN(Cc2cnc(Cl)s2)C1=N[N+](=O)[O-] [Thiamethoxam] | 159.9 | – | 162.1 | 158.3 | –
43 | CNC(=O)ON=C(SC)C(=O)N(C)C [Oxamyl] | – | – | 150.9 | – | –
